Data on 5 molecules can be found in US10722480B2, “Agent for controlling cells constituting cancer microenvironment or inflammatory microenvironment” (The University of Tokyo, priority 2015, dated 2020).

The target of series [1] is T1, aldehyde dehydrogenase (ALDH) (Rattus norvegicus, UniProt P11884).
T1 sequence (P11884 20-519): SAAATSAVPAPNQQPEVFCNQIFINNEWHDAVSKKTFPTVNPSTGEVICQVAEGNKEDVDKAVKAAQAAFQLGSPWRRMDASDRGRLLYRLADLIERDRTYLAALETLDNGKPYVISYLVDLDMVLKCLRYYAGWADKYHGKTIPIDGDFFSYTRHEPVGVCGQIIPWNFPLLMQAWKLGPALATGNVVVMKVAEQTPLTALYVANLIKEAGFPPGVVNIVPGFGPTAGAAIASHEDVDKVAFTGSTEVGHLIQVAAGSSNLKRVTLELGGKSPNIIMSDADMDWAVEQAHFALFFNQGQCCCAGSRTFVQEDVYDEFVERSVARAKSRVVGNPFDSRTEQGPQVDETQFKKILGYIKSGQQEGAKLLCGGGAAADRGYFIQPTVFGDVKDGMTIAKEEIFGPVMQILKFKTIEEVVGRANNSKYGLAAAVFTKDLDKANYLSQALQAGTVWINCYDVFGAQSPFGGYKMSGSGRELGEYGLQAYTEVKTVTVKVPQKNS
To be noted: Excerpt from Alcohol Clin Exp Res 1996.20.595-; read-out: ALDH inhibition; cited from earlier work.

The target in series [2] is T2, FROUNT-CCR2 interaction (Homo sapiens, UniProt Q9BW27).
T2 construct: made in house
T2 sequence (Q9BW27 500-656): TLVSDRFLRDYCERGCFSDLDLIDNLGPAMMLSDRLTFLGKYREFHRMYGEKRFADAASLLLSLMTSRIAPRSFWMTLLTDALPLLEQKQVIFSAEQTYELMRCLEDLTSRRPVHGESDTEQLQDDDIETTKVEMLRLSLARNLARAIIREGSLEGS
Kind of series: HTRF binding inhibition assay, FROUNT-CCR2 interaction. As to the method: For the screening, a compound library containing 131,200 kinds of compounds dissolved in DMSO at a concentration of 10 mM or 2 mM (obtained from Open Innovation Center for Drug Discovery, the University of Tokyo) was used. The HTRF assay was carried out using a 384-well low-dose white microplate (Corning Coaster; catalog number 3676). In each well, 4 μL of a solution of 20 nM GST fusion FROUNT protein (a recombinant polypeptide prepared by fusing GST to aa 500-656 of SEQ ID NO:2), and DMSO or test compounds were mixed with a binding buffer (10 mM HEPES [pH 7.4], 0.2 M potassium fluoride, 10 mM NaCl, 0.1% Tween 20, and 0.5% bovine serum albumin [BSA]), and the plate was incubated at room temperature for 30 minutes. […]. After incubation at room temperature for 20 hours, the HTRF signal was measured at emission wavelengths of 620 nm and 665 nm using a multilabel counter EnVision (PerkinElmer).
(§1) By the same HTRF assay as described above, the abilities of disulfiram to inhibit the FROUNT-CCR2 interaction or the FROUNT-CCR5 interaction were investigated. As the CCR5 pro-C peptide, the 16 residues […] (SEQ ID NO:4) in the C-terminal region of CCR5 was used. As a control, the p53-MDM2 interaction (which is inhibited by an MDM-2-specific inhibitor Nutlin), which is also a helix peptide-protein interaction like the interaction between FROUNT and CCR2 or CCR5 but is not related thereto, was used.
In general terms: In TR-FRET formats the signal depends on donor and acceptor labels being close together.

Series [3] has as its target p53-MDM2 interaction (Homo sapiens, UniProt Q00987). The experiment in a line: HTRF binding inhibition assay, p53-MDM2 control interaction. To be noted: p53-MDM2 control interaction.
Text: as §1

The subject of series [4] is LLC tumor cells. Kind of series: LDH cytotoxicity assay, LLC tumor cells. Type of series: cell-based. As to the method:
(§2) The cytotoxicity of inhibitors was tested by using LDH Cytotoxicity Detection Kit (TaKaRa) according to the manufacturer's instructions. Briefly, tumor cells were cultured in the presence or absence of an agent (disulfiram or 5FU) for 72 hours, and the culture supernatant was then collected and tested for the concentration of lactate dehydrogenase released from damaged cells. For measurement of cell proliferation, cells were incubated in a plate well together with an inhibitor for 48 hours. During the last 30 minutes, WST-1 (Dojindo Laboratories) was added to the culture liquid, and the absorbance of each well was measured at 450 nm versus 650 nm reference using EnVision (PerkinElmer) to detect the formazan level.

Series [5] relates to B16F10 melanoma cells. The experiment in a line: WST-1 proliferation assay, B16F10 melanoma cells. The format is cell-based. Particulars: WST-1, 48 hours. The protocol:
as §2
On the technique in general: Tetrazolium dyes change colour on reduction, which living cells bring about.

In series [6] the test system is B16F10 melanoma cells. Kind of series: Lung metastasis model (B16F10). Particulars: B16F10 via tail vein, Day 9 post tumor administration. The format is in vivo, mouse. The protocol: To provide a lung metastasis model, 1×10^6 B16F10 melanoma cells were suspended in 200 μL of PBS, and administered from the tail vein of each of wild-type C57BL/6 mice. Administration of the inhibitor was carried out one day before, 30 minutes before, and one day after the tumor administration. To provide a control, DMSO and a pyrimidine fluoride anticancer drug 5-FU were administered. The mice were euthanized on Day 9 post tumor administration, and PBS was perfused from the left ventricle, followed by isolation of lungs. Visible lung metastatic lesions in the left lobe were counted.

For series [7], the system named is B16F10 melanoma cells. Kind of series: LDH cytotoxicity assay, B16F10 melanoma cells. The format is cell-based. As to the method: as §2
The mark [8] stands for this setting: HTRF, read-out: FROUNT inhibition (IC50 against FROUNT-CCR2).

Each structure is given as a SMILES string. Where two headings read alike, the source gives them in different places.

Sequence of p53-MDM2 interaction (Q00987 whole entry): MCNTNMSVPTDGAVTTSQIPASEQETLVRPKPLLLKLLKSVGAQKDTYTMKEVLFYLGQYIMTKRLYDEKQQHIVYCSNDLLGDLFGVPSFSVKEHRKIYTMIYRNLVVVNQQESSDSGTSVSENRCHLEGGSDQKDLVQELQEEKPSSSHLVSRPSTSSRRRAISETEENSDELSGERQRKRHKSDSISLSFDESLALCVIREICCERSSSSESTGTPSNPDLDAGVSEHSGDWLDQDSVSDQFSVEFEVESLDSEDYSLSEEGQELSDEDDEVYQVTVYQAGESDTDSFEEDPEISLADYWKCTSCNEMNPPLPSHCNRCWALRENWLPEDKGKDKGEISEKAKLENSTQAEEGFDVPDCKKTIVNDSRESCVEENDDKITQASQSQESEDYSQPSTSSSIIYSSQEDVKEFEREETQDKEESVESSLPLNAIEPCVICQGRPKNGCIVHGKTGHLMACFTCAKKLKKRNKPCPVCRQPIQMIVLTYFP

For the molecule `CCN(CC)C(=O)[S+](C)[O-]` (stereo not drawn) [Me-DTC sulfoxide], the IC50 was 930 nM in series [1], greater than 1000 nM in series [2] (setting [8]) and greater than 1000 nM in series [3].
In series [2], `CCN(CC)C(=S)S` [DDC, sodium diethyldithiocarbamate] registered an IC50 of 137 nM.
`CCN(CC)C(=O)S(C)(=O)=O` [Me-DTC sulfone]: the IC50 in series [1] is 530 nM; in series [2] (setting [8]), greater than 1000 nM; in series [3] it was greater than 1000 nM.
With `CCN(CC)C(=S)[S-].CCN(CC)C(=S)[S-].CCN(CC)C(=S)[S-].[Fe+3]` [iron (III) complex of DDC], the IC50 in series [2] (setting [8]) amounted to 9.2 nM.
Turning to `O=c1[nH]cc(F)c(=O)[nH]1` [5FU], in series [4], the “cytotoxic activity on LLC tumor cells” value is “completely killed”. Besides, the “growth-inhibiting action on B16F10 melanoma cells” value in series [5] is listed as “growth-inhibiting action”. The “formation of lung metastatic lesions” value in series [6] is listed as “did not reduce”. Also, the “cytotoxic activity on B16F10 melanoma cells” value in series [7] is listed as “showed cytotoxic activity”.
